Laboratory results taken from PubChem BioAssay AID248 (DTP/NCI, 2004).
Several values for one entry are separate records, joined by “and”; a condition that tells them apart may be missing. Equal entries are not always repeated. Inconclusive results and toxic doses are left out. No stated cut-off is given here; in the data, active means T/C of 150% or more; inactive means T/C below 125%.

Tested on: L1210 leukemia ip in BDF1 mice, survival T/C
Assay: NCI In Vivo Anticancer Drug Screen. Data for tumor model L1210 Leukemia (intraperitoneal) in B6D2F1 (BDF1) mice
Conditions: endpoint: mean survival time, higher = longer survival
Outline: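 Antitumor effect is assessed in tumor-bearing animals. Survival in the compound arm is compared with a vehicle-dosed control arm and expressed as their quotient.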

[1] = dose: 100.0 mg/kg/injection, schedule: Q04DX003 (ip), vehicle: saline with Tween-80
[2] = dose: 200.0 mg/kg/injection, schedule: Q04DX003 (ip), vehicle: saline with Tween-80
[3] = dose: 400.0 mg/kg/injection, schedule: Q04DX003 (ip), vehicle: saline with Tween-80
[4] = dose: 100.0 mg/kg/injection, schedule: Q01DX001 (ip), vehicle: saline
[5] = dose: 200.0 mg/kg/injection, schedule: Q01DX001 (ip), vehicle: saline
[6] = dose: 400.0 mg/kg/injection, schedule: Q01DX001 (ip), vehicle: saline
[7] = dose: 100.0 mg/kg/injection, schedule: Q04DX003 (ip), vehicle: saline
[8] = dose: 200.0 mg/kg/injection, schedule: Q04DX003 (ip), vehicle: saline
[9] = dose: 400.0 mg/kg/injection, schedule: Q04DX003 (ip), vehicle: saline
[10] = dose: 100.0 mg/kg/injection, schedule: Q04DX003 (ip), vehicle: Klucel (hydroxypropylcellulose) (HPC)
[11] = dose: 200.0 mg/kg/injection, schedule: Q01DX009 (ip), vehicle: Klucel (hydroxypropylcellulose) (HPC)
[12] = dose: 200.0 mg/kg/injection, schedule: Q04DX003 (ip), vehicle: Klucel (hydroxypropylcellulose) (HPC)
[13] = dose: 400.0 mg/kg/injection, schedule: Q04DX003 (ip), vehicle: Klucel (hydroxypropylcellulose) (HPC)
[14] = dose: 100.0 mg/kg/injection, schedule: Q04DX002 (ip), vehicle: Klucel (hydroxypropylcellulose) (HPC)
[15] = dose: 200.0 mg/kg/injection, schedule: Q04DX002 (ip), vehicle: Klucel (hydroxypropylcellulose) (HPC)
[16] = dose: 400.0 mg/kg/injection, schedule: Q04DX002 (ip), vehicle: Klucel (hydroxypropylcellulose) (HPC)
[17] = dose: 100.0 mg/kg/injection, schedule: Q01DX009 (ip), vehicle: saline
[18] = dose: 200.0 mg/kg/injection, schedule: Q01DX009 (ip), vehicle: saline
[19] = dose: 400.0 mg/kg/injection, schedule: Q01DX009 (ip), vehicle: saline
[20] = dose: 100.0 mg/kg/injection, schedule: Q01DX009 (ip), vehicle: Klucel (hydroxypropylcellulose) (HPC)
[21] = dose: 400.0 mg/kg/injection, schedule: Q01DX009 (ip), vehicle: Klucel (hydroxypropylcellulose) (HPC)

Measured: T/C

COC(=O)C1(C)CCCC2(C)c3cc(O)c(C(C)C)cc3CCC12 (stereo not given)
inactive: dose: 100.0 mg/kg/injection, schedule: Q01DX001 (ip), vehicle: acetone 88 % of control | dose: 200.0 mg/kg/injection, schedule: Q01DX001 (ip), vehicle: acetone 90 % of control | dose: 400.0 mg/kg/injection, schedule: Q01DX001 (ip), vehicle: acetone 93 % of control

CCCCCCc1cc(N=Nc2ccc(S(=O)(=O)Nc3occ(C)c3C)cc2)c(O)cc1O
inactive: dose: 100.0 mg/kg/injection, schedule: Q01DX001 (ip), vehicle: carboxymethylcellulose (CMC) 93 % of control | dose: 200.0 mg/kg/injection, schedule: Q01DX001 (ip), vehicle: carboxymethylcellulose (CMC) 93 % of control | dose: 400.0 mg/kg/injection, schedule: Q01DX001 (ip), vehicle: carboxymethylcellulose (CMC) 98 % of control

CN(C)c1ccc(/C=C/C=C2\c3ccccc3-c3ccc([N+](=O)[O-])cc32)cc1
inactive: [1] 93 % of control | [2] 102 % of control | [3] 94 % of control

CCCCN(CCCC)CC(O)c1cc(-c2ccc(Cl)c(Cl)c2)nc2c(Cl)cc(Cl)cc12 (stereo not given)
inactive: [4] 103 % of control | [5] 94 % of control | [6] 94 % of control

O=C1CC=C(Nc2ccc(Br)cc2)C(=O)O1
inactive: [7] 106 % of control | [8] 108 % of control | [9] 108 % of control

OC(c1nc2ccc(Cl)cc2[nH]1)C(O)c1nc2ccc(Cl)cc2[nH]1 (stereo not given)
inactive: dose: 75.0 mg/kg/injection, schedule: Q01DX001 (ip), vehicle: other 102 % of control | dose: 150.0 mg/kg/injection, schedule: Q01DX001 (ip), vehicle: other 96 % of control | dose: 300.0 mg/kg/injection, schedule: Q01DX001 (ip), vehicle: other 91 % of control

O=I(=O)c1ccccc1
inactive: dose: 25.0 mg/kg/injection, schedule: Q01DX009 (ip), vehicle: saline with Tween-80 101 % of control | dose: 50.0 mg/kg/injection, schedule: Q01DX009 (ip), vehicle: saline with Tween-80 103 % of control | dose: 100.0 mg/kg/injection, schedule: Q01DX009 (ip), vehicle: saline with Tween-80 97 % of control | [1] 96 % of control

CCOP(=O)(OCC)OCCSCC
inactive: dose: 75.0 mg/kg/injection, schedule: Q01DX001 (ip), vehicle: saline 103 % of control | dose: 150.0 mg/kg/injection, schedule: Q01DX001 (ip), vehicle: saline 102 % of control

CC1CC(C)CC(NC(=O)NCCCl)C1 (stereo not given)
inactive: dose: 20.0 mg/kg/injection, schedule: Q01DX009 (ip), vehicle: Klucel (hydroxypropylcellulose) (HPC) 106 % of control | dose: 40.0 mg/kg/injection, schedule: Q01DX009 (ip), vehicle: Klucel (hydroxypropylcellulose) (HPC) 95 % of control | dose: 80.0 mg/kg/injection, schedule: Q01DX009 (ip), vehicle: Klucel (hydroxypropylcellulose) (HPC) 93 % of control | [10] 103 % of control | [11] 87 % of control | [12] 94 % of control | [13] 92 % of control

Cc1[nH]c(=O)[nH]c(=O)c1CN1CCOCC1
inactive: [1] 102 % of control | [2] 113 % of control | [3] 100 % of control

CN(C)c1ccccc1C1CCCCCC1O (stereo not given)
inactive: dose: 75.0 mg/kg/injection, schedule: Q01DX001 (ip), vehicle: carboxymethylcellulose (CMC) 101 % of control | dose: 150.0 mg/kg/injection, schedule: Q01DX001 (ip), vehicle: carboxymethylcellulose (CMC) 90 % of control | dose: 300.0 mg/kg/injection, schedule: Q01DX001 (ip), vehicle: carboxymethylcellulose (CMC) 90 % of control

CC(=O)OC1CCC2(C)C(=CCC3C2CCC2(C)C3CC3C(c4ccccc4Br)=NN(c4ccccc4)C32C#N)C1 (stereo not given)
inactive: dose: 3.0 mg/kg/injection, schedule: Q04DX002 (ip), vehicle: Klucel (hydroxypropylcellulose) (HPC) 106 % of control | dose: 6.0 mg/kg/injection, schedule: Q04DX002 (ip), vehicle: Klucel (hydroxypropylcellulose) (HPC) 94 % of control and 107 % of control | dose: 12.0 mg/kg/injection, schedule: Q04DX002 (ip), vehicle: Klucel (hydroxypropylcellulose) (HPC) 100 % of control | dose: 25.0 mg/kg/injection, schedule: Q04DX002 (ip), vehicle: Klucel (hydroxypropylcellulose) (HPC) 104 % of control | dose: 50.0 mg/kg/injection, schedule: Q04DX002 (ip), vehicle: Klucel (hydroxypropylcellulose) (HPC) 114 % of control

CC(C)=CCOC(N)=O
inactive: [10] 95 % of control | [12] 104 % of control | [13] 109 % of control

CC1=CC(=C(C#N)C#N)CC(C)(C)C1
inactive: [14] 101 % of control | [15] 101 % of control | [16] 93 % of control

Cc1ccc(O)cc1Cl
inactive: [17] 104 % of control | [7] 95 % of control | [18] 101 % of control | [8] 104 % of control | [19] 95 % of control | [9] 96 % of control

CC1(C)N=C(N)N=C(N)N1c1ccc(Cl)c(Cl)c1
inactive: dose: 1.0 mg/kg/injection, schedule: Q01DX009 (ip), vehicle: saline 111 % of control | dose: 1.25 mg/kg/injection, schedule: Q01DX009 (ip), vehicle: saline 109 % of control | dose: 2.5 mg/kg/injection, schedule: Q01DX009 (ip), vehicle: saline 109 % of control and 117 % of control | dose: 5.0 mg/kg/injection, schedule: Q01DX001 (ip), vehicle: saline 105 % of control | dose: 5.0 mg/kg/injection, schedule: Q01DX009 (ip), vehicle: saline 119 % of control | dose: 10.0 mg/kg/injection, schedule: Q01DX001 (ip), vehicle: saline 102 % of control and 106 % of control | dose: 10.0 mg/kg/injection, schedule: Q01DX009 (ip), vehicle: saline 117 % of control and 118 % of control | dose: 20.0 mg/kg/injection, schedule: Q01DX001 (ip), vehicle: saline 105 % of control and 106 % of control | dose: 20.0 mg/kg/injection, schedule: Q01DX009 (ip), vehicle: saline 92 % of control | dose: 36.0 mg/kg/injection, schedule: Q01DX009 (ip), vehicle: saline 88 % of control | dose: 40.0 mg/kg/injection, schedule: Q01DX001 (ip), vehicle: saline 107 % of control and 92 % of control

COc1ccc(C(=O)/C=C/c2ccc(OC)c(Br)c2)cc1
inactive: [10] 95 % of control | [12] 95 % of control | [13] 94 % of control

O=C(Cl)c1ccccc1S(=O)(=O)N(CCOc1ccccc1)c1ccccc1
inactive: [20] 97 % of control | [10] 96 % of control | [11] 98 % of control | [12] 91 % of control | [21] 97 % of control | [13] 86 % of control

CC(=Nc1cc(C)c(C)cc1C)c1c(O)cc(C)oc1=O
inactive: [20] 93 % of control | [14] 98 % of control | [11] 98 % of control | [15] 98 % of control | [21] 87 % of control | [16] 98 % of control

O=C(O)CCC1(CCC(=O)O)SCSCS1
inactive: [10] 93 % of control | [12] 98 % of control | [13] 93 % of control

CCCCNC(c1ccc(C=NC(CC)(CO)CO)cc1)C(Br)(Br)Br (stereo not given)
inactive: [4] 92 % of control | [17] 88 % of control | [5] 92 % of control | [18] 90 % of control | [6] 97 % of control | [19] 91 % of control

CCCc1nc2ccccc2c(=O)n1/N=C/c1ccsc1
inactive: dose: 100.0 mg/kg/injection, schedule: Q04DX003 (ip), vehicle: saline sonified 101 % of control | dose: 200.0 mg/kg/injection, schedule: Q04DX003 (ip), vehicle: saline sonified 94 % of control | dose: 400.0 mg/kg/injection, schedule: Q04DX003 (ip), vehicle: saline sonified 94 % of control

CCC(C)C(C)NC(C)=O (stereo not given)
inactive: [7] 101 % of control | [8] 113 % of control

Cc1cc2nc(-c3cc4cc(Cl)cc(Cl)c4oc3=O)[nH]c2cc1C
inactive: [14] 108 % of control | [15] 104 % of control | [16] 115 % of control

O=c1ssc(Nc2ccccc2)c1Cl
inactive: [14] 93 % of control | [15] 100 % of control | [16] 104 % of control

Clc1ccc(NC2=NCCCS2)c2ccccc12
inactive: dose: 25.0 mg/kg/injection, schedule: Q01DX009 (ip), vehicle: Klucel (hydroxypropylcellulose) (HPC) 98 % of control | dose: 50.0 mg/kg/injection, schedule: Q01DX009 (ip), vehicle: Klucel (hydroxypropylcellulose) (HPC) 102 % of control | [20] 94 % of control and 92 % of control | [10] 97 % of control | [12] 90 % of control
